In US10487093B2, “Heterocyclic compounds, in particular 2-oxo-4,4,5,5,6,6,7,7-octahydrobenzoxazole derivatives, and their use as antibacterial compounds” (priority 2016, dated 2019):
Converted amounts (≈) assume the structure as drawn. Like-named read-outs stand apart in the source and are kept apart here.

How the values were obtained:
[1] = system: Pseudomonas aeruginosa ATCC 27853; assay: MIC, broth microdilution (CLSI) versus planktonic bacteria; type: cell-based
[2] = system: Escherichia coli ATCC 25922; assay: as above; type: cell-based
[3] = system: E. coli MG1655; assay: as above; type: cell-based, Escherichia coli; conditions: Escherichia coli, MG1655, read-out: MIC, Ec MG1655 WT
[4] = system: Acinetobacter baumannii ATCC 19606; assay: as above; type: cell-based
[5] = system: Enterobacter cloacae NCTC 13406; assay: as above; type: cell-based
[6] = system: E. coli MG1655 D87G; type: cell-based, Escherichia coli; conditions: compared to the isogenic parent strain E. coli MG1655; D87G mutation on DNA gyrase subunit GyrA
[7] = system: human hepatic cell line (HepG2 ATCC HB-8065); assay: Human cell viability assay (CellTiter-Glo); conditions: Homo sapiens, HepG2, 24 h, read-out: IC50 (μg/mL) HepG2
[8] = system: Acinetobacter baumannii NCTC 13420; assay: MIC, broth microdilution (CLSI) versus planktonic bacteria; type: cell-based
[9] = system: Staphylococcus aureus ATCC 29213; assay: as above; type: cell-based
[10] = system: Haemophilus influenzae ATCC 49247; assay: as above; type: cell-based
[11] = system: E. coli MG1655 S83L; type: cell-based, Escherichia coli; conditions: compared to the isogenic parent strain E. coli MG1655; S83L mutation on DNA gyrase subunit GyrA
[12] = system: Streptococcus pneumoniae ATCC 49619; assay: MIC, broth microdilution (CLSI) versus planktonic bacteria; type: cell-based
[13] = ATCC27853, Pseudomonas aeruginosa ATCC 27853, 16-20 h, mode of three independent experiments, read-out: MIC, Pa ATCC 27853
[14] = ATCC25922, Escherichia coli ATCC 25922, 16-20 h, mode of three independent experiments, read-out: MIC, Ec ATCC 25922
[15] = ATCC19606, Acinetobacter baumannii ATCC 19606, 16-20 h, mode of three independent experiments, read-out: MIC, Ab ATCC 19606
[16] = NCTC13406, Enterobacter cloacae NCTC 13406, 16-20 h, mode of three independent experiments, read-out: MIC, Ecl NCTC 13406
[17] = NCTC13420, Acinetobacter baumannii NCTC 13420, 16-20 h, mode of three independent experiments, read-out: MIC, Ab NCTC 13420
[18] = ATCC29213, Staphylococcus aureus ATCC 29213, 16-20 h, mode of three independent experiments, read-out: MIC, Sa ATCC 29213
[19] = ATCC49247, Haemophilus influenzae ATCC 49247, 16-20 h, mode of three independent experiments, read-out: MIC, Hi ATCC 49247
[20] = ATCC49619, Streptococcus pneumoniae ATCC 49619, 16-20 h, mode of three independent experiments, read-out: MIC, Sp ATCC 49619
[21] = Pseudomonas aeruginosa, ATCC27853, read-out: MIC, Pa ATCC 27853
[22] = Escherichia coli, ATCC25922, read-out: MIC, Ec ATCC 25922
[23] = Enterobacter cloacae, NCTC13406, read-out: MIC, Ecl NCTC 13406
[24] = Acinetobacter baumannii, NCTC13420, read-out: MIC, Ab NCTC 13420
[25] = Staphylococcus aureus, ATCC29213, read-out: MIC, Sa ATCC 29213
[26] = Haemophilus influenzae, ATCC49247, read-out: MIC, Hi ATCC 49247
[27] = Streptococcus pneumoniae, ATCC49619, read-out: MIC, Sp ATCC 49619

| SMILES | MIC [1, 13] [µg/mL] | MIC [2, 14] [µg/mL] | MIC [3] [µg/mL] | MIC [4, 15] [µg/mL] | MIC [5, 16] [µg/mL] | Fold increase in MIC, E. coli MG1655 D87G [6] [fold] | IC50 [7] [µg/mL] | MIC [8, 17] [µg/mL] | MIC [9, 18] [µg/mL] | MIC [10, 19] [µg/mL] | Fold increase in MIC, E. coli MG1655 S83L [11] [fold] | MIC [12, 20] [µg/mL] | MIC [1, 21] [µg/mL] | MIC [2, 22] [µg/mL] | MIC ([4]; Acinetobacter baumannii, ATCC19606, read-out: MIC, Ab ATCC 19606) [µg/mL] | MIC [5, 23] [µg/mL] | MIC [8, 24] [µg/mL] | MIC [9, 25] [µg/mL] | MIC [10, 26] [µg/mL] | MIC [12, 27] [µg/mL] |
| --- | --- | --- | --- | --- | --- | --- | --- | --- | --- | --- | --- | --- | --- | --- | --- | --- | --- | --- | --- | --- |
| COc1ccc2c3conc3c(=O)n(CCN[C@H]3CC[C@H]4[C@@H](C3)OC(=O)N4c3ccc4c(n3)NC(=O)CO4)c2c1 [Compound 11, (3aS,6S,7aR)-6-[(2-{7-methoxy-4-oxo-4H,5H-[1,2]oxazolo[3,4-c]quinolin-5-yl}ethyl)amino]-3-{3-oxo-2H,3H,4H-pyrido[3,2-b][1,4]oxazin-6-yl}-octahydro-1,3-benzoxazol-2-one] | 1 to 10 (≈ 1.83 to 18.3 µM) | < 1 | < 1 | 1 to 10 (≈ 1.83 to 18.3 µM) | 1 to 10 (≈ 1.83 to 18.3 µM) | 1 | 10 to 100 (≈ 18.3 to 183 µM) | < 1 | < 1 | 1 to 10 (≈ 1.83 to 18.3 µM) | 2 | 1 to 10 (≈ 1.83 to 18.3 µM) |  |  |  |  |  |  |  |  |
| O=C1COc2ccc(N3C(=O)O[C@@H]4C[C@@H](NCCn5c(=O)ccc6ccc(Oc7cccnc7)nc65)CC[C@@H]43)nc2N1 [Compound 12, 1-(2-{[(3aS,6S,7aR)-2-oxo-3-{3-oxo-2H,3H,4H-pyrido[3,2-b][1,4]oxazin-6-yl}-octahydro-1,3-benzoxazol-6-yl]amino}ethyl)-7-(pyridin-3-yloxy)-1,2-dihydro-1,8-naphthyridin-2-one] | 1 to 10 (≈ 1.76 to 17.6 µM) | < 1 | < 1 | 1 to 10 (≈ 1.76 to 17.6 µM) | 1 to 10 (≈ 1.76 to 17.6 µM) | 1 | > 100 | 1 to 10 (≈ 1.76 to 17.6 µM) | < 1 | 1 to 10 (≈ 1.76 to 17.6 µM) | 1 | < 1 |  |  |  |  |  |  |  |  |
| COC(=O)c1ccc2ccc(=O)n(CCN[C@@H]3CC[C@@H]4[C@@H](C3)OC(=O)N4c3ccc4c(n3)NC(=O)CO4)c2c1 [Compound 36, methyl 1-(2-{[(3aR,6R,7aR)-2-oxo-3-{3-oxo-2H,3H,4H-pyrido[3,2-b][1,4]oxazin-6-yl}-octahydro-1,3-benzoxazol-6-yl]amino}ethyl)-2-oxo-1,2-dihydroquinoline-7-carboxylate] | 1 to 10 (≈ 1.87 to 18.7 µM) | < 1 |  | < 1 | < 1 |  | 10 to 100 (≈ 18.7 to 187 µM) | < 1 | < 1 | < 1 |  | < 1 |  |  |  |  |  |  |  |  |
| N#Cc1ccc2ccc(=O)n(CCN[C@@H]3CC[C@@H]4[C@@H](C3)OC(=O)N4c3ncc4c(n3)NC(=O)CO4)c2c1 [Compound 37, 1-(2-{[(3aR,6R,7aR)-2-oxo-3-{7-oxo-6H,7H,8H-pyrimido[5,4-b][1,4]oxazin-2-yl}-octahydro-1,3-benzoxazol-6-yl]amino}ethyl)-2-oxo-1,2-dihydroquinoline-7-carbonitrile] | 1 to 10 (≈ 1.99 to 19.9 µM) | < 1 |  | 1 to 10 (≈ 1.99 to 19.9 µM) | < 1 |  | > 100 | 1 to 10 (≈ 1.99 to 19.9 µM) | < 1 | < 1 |  | < 1 |  |  |  |  |  |  |  |  |
| CNCCOc1ccc2ccc(=O)n(CCN[C@@H]3CC[C@@H]4[C@@H](C3)OC(=O)N4c3ccc4c(n3)NC(=O)CO4)c2c1 [Compound 39, (3aR,6R,7aR)—N-(2-{7-[2-(methylazaniumyl)ethoxy]-2-oxo-1,2-dihydroquinolin-1-yl}ethyl)-2-oxo-3-{3-oxo-2H,3H,4H-pyrido[3,2-b][1,4]oxazin-6-yl}-octahydro-1,3-benzoxazol-6-aminium dichloride] |  |  |  |  |  |  | > 100 |  |  |  |  |  | 1 to 10 | 1 to 10 | > 100 | 10 to 100 | 10 to 100 | 1 to 10 | 10 to 100 | 1 to 10 |
| COc1ccc2ccc(=O)n(CCN(C(=O)CN)[C@H]3CC[C@H]4[C@H](C3)OC(=O)N4c3ccc4c(n3)NC(=O)CO4)c2n1 [Compound 78, {[(3aS,6S,7aS)-2-oxo-3-{3-oxo-2H,3H,4H-pyrido[3,2-b][1,4]oxazin-6-yl}-octahydro-1,3-benzoxazol-6-yl][2-(7-methoxy-2-oxo-1,2-dihydro-1,8-naphthyridin-1-yl)ethyl]carbamoyl}methanaminium chloride] |  |  |  |  |  |  | > 100 |  |  |  |  |  | 1 to 10 | 1 to 10 |  | > 100 | 10 to 100 | < 1 | 10 to 100 | < 1 |
| COc1ccc2ccc(=O)n(CCCN[C@@H]3CC[C@@H]4[C@@H](C3)OC(=O)N4c3ncc4c(n3)NC(=O)CO4)c2n1 [Compound 79, 1-(3-{[(3aR,6R,7aR)-2-oxo-3-{7-oxo-6H,7H,8H-pyrimido[5,4-b][1,4]oxazin-2-yl}-octahydro-1,3-benzoxazol-6-yl]amino}propyl)-7-methoxy-1,2-dihydro-1,8-naphthyridin-2-one] | 1 to 10 (≈ 1.92 to 19.2 µM) | < 1 |  | 1 to 10 (≈ 1.92 to 19.2 µM) | 1 to 10 (≈ 1.92 to 19.2 µM) |  | 10 to 100 (≈ 19.2 to 192 µM) | < 1 | < 1 | < 1 |  | < 1 |  |  |  |  |  |  |  |  |
| Cn1ccc(-c2ccc3ccc(=O)n(CCN[C@H]4CC[C@H]5[C@H](C4)OC(=O)N5c4ccc5c(n4)NC(=O)CO5)c3c2)n1 [Compound 104, 1-(2-{[(3aS,6S,7aS)-2-oxo-3-{3-oxo-2H,3H,4H-pyrido[3,2-b][1,4]oxazin-6-yl}-octahydro-1,3-benzoxazol-6-yl]amino}ethyl)-7-(1-methyl-1H-pyrazol-3-yl)-1,2-dihydroquinolin-2-one] | 10 to 100 (≈ 18 to 180 µM) | 1 to 10 (≈ 1.8 to 18 µM) |  |  | 1 to 10 (≈ 1.8 to 18 µM) |  | 10 to 100 (≈ 18 to 180 µM) | < 1 | < 1 | < 1 |  | < 1 |  |  |  |  |  |  |  |  |
| N#Cc1ccc2c(ccc(=O)n2CCN[C@@H]2CC[C@@H]3[C@@H](C2)OC(=O)N3c2ccc3c(n2)NC(=O)CO3)c1 [Compound 106, 1-(2-{[(3aR,6R,7aR)-2-oxo-3-{3-oxo-2H,3H,4H-pyrido[3,2-b][1,4]oxazin-6-yl}-octahydro-1,3-benzoxazol-6-yl]amino}ethyl)-2-oxo-1,2-dihydroquinoline-6-carbonitrile] |  | < 1 | < 1 |  | 1 to 10 (≈ 2 to 20 µM) |  |  | 1 to 10 (≈ 2 to 20 µM) | < 1 |  |  | < 1 |  |  |  |  |  |  |  |  |
| C[C@H]1COc2c(N3CCN(C)CC3)c(F)cc3c(=O)c(C(=O)O)cn1c23 [LEV, levofloxacin, reference compound] |  |  |  |  |  | 8 |  |  |  |  | 8 |  |  |  |  |  |  |  |  |  |
